Test results reported in patent US20250136614A1, “2,7-SUBSTITUTED PYRROLO[2,1-F][1,2,4]TRIAZINE COMPOUND HAVING PROTEIN KINASE INHIBITORY ACTIVITY” (Magicbullettherapeutics Co., Ltd., priority 2021, published 2025).

Assays:
Assay type in all cases: cell-based
H358 = assay: Cancer cell growth inhibition (CellTiter-Glo, 72 hours); details: Homo sapiens, NCI-H358, H358 cells, read-out: GI50s (μM) H358
Protocol: (§1) Seeding 3000 cells per well in a 96-well plate. After cell stabilization, treat the cells with compounds diluted in 0.5% DMSO at a ⅓ serial dilution and culture for 72 hours. Following treatment with CellTiter-Glo, luminescence is produced only in the presence of ATP, as luciferase degrades luciferin. Luminescence values were measured using Envision (PerkinElmer). Based on the measured luminescence values, the concentration of compounds causing cell death was calculated to determine the GI50 value.
(§2) The activity values were categorized into three levels • A: IC50<1 μM • B: 1 μM≤IC50<10 μM, • C: IC50≥10 μM

H1975 = assay: as above; details: Homo sapiens, NCI-H1975, H1975 cells, read-out: GI50s (μM) H1975
Protocol: as §1, §2

HCT116 = assay: as above; details: Homo sapiens, HCT-116, HCT116 cells, read-out: GI50s (μM) HCT116
Protocol: as §1, §2

MDA-MB-231 = assay: as above; details: Homo sapiens, MDA-MB-231 cells, read-out: GI50s (μM) MDA-MB-231
Protocol: as §1, §2

colo205 = assay: as above; details: Homo sapiens, COLO 205, colo205 cells, read-out: GI50s (μM) colo205
Protocol: as §1, §2

H23 = assay: as above; details: Homo sapiens, NCI-H23, H23 cells, read-out: GI50s (μM) H23
Protocol: as §1, §2

[1] = biological target: T1, Ba/F3 FLT3 (ITD/D835YF691L) (Homo sapiens, UniProt P36888, F691L/D835Y, cells depend on it, form not given); assay: Ba/F3 cell growth inhibition (CellTiter-Glo, 72 hours); details: read-out: Ba/F3 GI50s (μM) FLT3 (ITD/D835YF691L)
T1 sequence (P36888 1-993 F691L/D835Y): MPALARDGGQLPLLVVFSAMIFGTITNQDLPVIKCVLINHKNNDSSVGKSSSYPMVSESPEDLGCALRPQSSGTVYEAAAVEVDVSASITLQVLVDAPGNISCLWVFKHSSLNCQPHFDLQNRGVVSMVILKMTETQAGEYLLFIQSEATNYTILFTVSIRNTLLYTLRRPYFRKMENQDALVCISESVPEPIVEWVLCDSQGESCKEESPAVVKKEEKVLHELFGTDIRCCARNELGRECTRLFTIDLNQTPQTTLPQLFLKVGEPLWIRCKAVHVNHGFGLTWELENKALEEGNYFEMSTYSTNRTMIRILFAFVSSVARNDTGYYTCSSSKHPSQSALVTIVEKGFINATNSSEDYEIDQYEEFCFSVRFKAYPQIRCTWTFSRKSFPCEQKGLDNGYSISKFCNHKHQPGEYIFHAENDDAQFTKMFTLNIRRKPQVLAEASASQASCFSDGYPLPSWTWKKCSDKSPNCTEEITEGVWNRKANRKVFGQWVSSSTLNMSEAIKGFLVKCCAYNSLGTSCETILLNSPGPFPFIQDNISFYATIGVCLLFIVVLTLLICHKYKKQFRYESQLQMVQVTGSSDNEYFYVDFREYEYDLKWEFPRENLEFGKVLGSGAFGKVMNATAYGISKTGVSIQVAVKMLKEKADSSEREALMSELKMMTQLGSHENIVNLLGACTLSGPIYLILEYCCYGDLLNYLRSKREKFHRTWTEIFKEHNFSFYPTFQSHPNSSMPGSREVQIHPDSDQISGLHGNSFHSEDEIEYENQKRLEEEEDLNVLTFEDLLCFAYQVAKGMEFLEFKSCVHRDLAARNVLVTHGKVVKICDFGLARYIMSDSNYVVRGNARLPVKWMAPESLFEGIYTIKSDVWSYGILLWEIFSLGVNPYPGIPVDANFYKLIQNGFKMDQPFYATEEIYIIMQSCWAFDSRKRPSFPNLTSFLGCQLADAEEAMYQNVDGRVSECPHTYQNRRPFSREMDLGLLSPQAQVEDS
Protocol: as §1, with “[…]” for “0.5%”
The activity values were categorized into three levels. • A: IC50<1 μM • B: 1 μM≤IC50<10 μM, • C: IC50≥10 μM

Structure (SMILES) | IC50 (H358) [µM] | IC50 (H1975) [µM] | IC50 (HCT116) [µM] | IC50 (MDA-MB-231) [µM] | IC50 (colo205) [µM] | IC50 (H23) [µM] | GI50 [1] [µM]
CN1CCCn2cc(cn2)Nc2ncc3ccc(n3n2)-c2ccc(cc2)OCC1 [Example 2] | < 1 | 1 to 10 | < 1 | ≥ 10 | 1 to 10 | < 1 | < 1
CC(=O)N1CCCn2cc(cn2)Nc2ncc3ccc(n3n2)-c2ccc(cc2)OCC1 [Example 3, 1-((2^1Z,4^4E)-4^1H-11-oxa-3,8-diaza-2(7,2)-pyrrolo[2,1-f1][1,2,4]triazina-4(4,1)-pyrazola-1(1,4)-benzenacycloundecaphane-8-yl)ethan-1-one] | 1 to 10 | 1 to 10 | < 1 | 1 to 10 | 1 to 10 | 1 to 10 | < 1
COc1cccc(NC(=O)N2CCCn3cc(cn3)Nc3ncc4ccc(n4n3)-c3ccc(cc3)OCC2)c1 [Example 7, (2^1Z,4^4E)-N-(3-methoxyphenyl)-4^1H-11-oxa-3,8-diaza-2(7,2)-pyrrolo[2,1-f][1,2,4]triazina-4(4,1)-pyrazola-1(1,4)-benzenecycloundecaphane-8-carboxamide] | 1 to 10 | 1 to 10 | 1 to 10 | ≥ 10 | ≥ 10 | 1 to 10 | 1 to 10
CS(=O)(=O)N1CCCn2cc(cn2)Nc2ncc3ccc(n3n2)-c2ccc(cc2)OCC1 [Example 9, (2^1Z,4^4E)-8-(methylsulfonyl)-4^1H-11-oxa-3,8-diaza-2(7,2)-pyrrolo[2,1-f][1,2,4]triazina-4(4,1)-pyrazola-1(1,4)-benzenecycloundecaphane] | < 1 | 1 to 10 | < 1 | ≥ 10 | 1 to 10 | 1 to 10 | < 1

Now from value to molecule:

IC50 (H358) [µM] | IC50 (H1975) [µM] | IC50 (HCT116) [µM] | IC50 (MDA-MB-231) [µM] | IC50 (colo205) [µM] | IC50 (H23) [µM] | GI50 [1] [µM] | Structure (SMILES)
≥ 10 | 1 to 10 | 1 to 10 | ≥ 10 | ≥ 10 | 1 to 10 | 1 to 10 | O=C1CCCCCCn2cc(cn2)-c2ccc3cnc(nn23)Nc2ccc(cc2)OCCCN1 [Example 17, (1^4Z,2^1Z)-1′H-5-oxa-3,9-diaza-2(7,2)-pyrrolo[2,1-f][1,2,4]triazina-1(4,1)-pyrazola-4(1,4)-benzenacyclohexadecaphan-10-one]
≥ 10 | ≥ 10 | ≥ 10 | ≥ 10 | ≥ 10 | ≥ 10 | ≥ 10 | O=C1CCCCCCOc2ccc(cc2F)-c2ccc3cnc(nn23)Nc2ccc(cc2)OCCCN1 [Example 20, (Z)-13-fluoro-5,17-dioxa-3,9-diaza-2(7,2)-pyrrolo[2,1-f][1,2,4]triazina-1,4(1,4)-dibenzenacycloheptadecaphan-10-one]
1 to 10 | 1 to 10 | 1 to 10 | ≥ 10 | 1 to 10 | < 1 | 1 to 10 | O=C1CCCCCCOc2ccc(cc2)-c2ccc3cnc(nn23)Nc2ccc(cc2)N2CCN(CCCN1)CC2 [Example 23, (Z)-17-oxa-3,9-diaza-2(7,2)-pyrrolo[2,1-f][1,2,4]triazina-5(1,4)-piperazina-1,4(1,4)-dibenzenacycloheptadecaphan-10-one]
1 to 10 | 1 to 10 | 1 to 10 | ≥ 10 | 1 to 10 | 1 to 10 | ≥ 10 | O=C1CCCCCCOc2ccc(cc2)-c2ccc3cnc(nn23)Nc2ccc(cc2)N2CCN1CC2 [Example 24, (Z)-13-oxa-3-aza-2(7,2)-pyrrolo[2,1-f][1,2,4]triazina-5(1,4)-piperazina-1,4(1,4)-dibenzenacyclotridecaphan-6-one]
≥ 10 | ≥ 10 | < 1 | ≥ 10 | ≥ 10 | 1 to 10 | 1 to 10 | O=C1CCCCOc2ccc(cc2)-c2ccc3cnc(nn23)Nc2cnn(c2)C2CCN1CC2 [Example 25, (2^1Z,4^4E)-4^1H-11-oxa-3-aza-2(7,2)-pyrrolo[2,1-f][1,2,4]triazina-5(4,1)-piperidina-4(4,1)-pyrazola-1(1,4)-benzenacycloundecaphan-6-one]
